IC50 data for one compound are collected here from BindingDB's records for doi:10.7270/Q2BZ64GK (Burnham Center For Chemical Genomics, 2009).

In this assay the target is T1, Tyrosine-protein phosphatase non-receptor type 22 (Homo sapiens, UniProt Q9Y2R2).
T1 sequence (Q9Y2R2 whole entry): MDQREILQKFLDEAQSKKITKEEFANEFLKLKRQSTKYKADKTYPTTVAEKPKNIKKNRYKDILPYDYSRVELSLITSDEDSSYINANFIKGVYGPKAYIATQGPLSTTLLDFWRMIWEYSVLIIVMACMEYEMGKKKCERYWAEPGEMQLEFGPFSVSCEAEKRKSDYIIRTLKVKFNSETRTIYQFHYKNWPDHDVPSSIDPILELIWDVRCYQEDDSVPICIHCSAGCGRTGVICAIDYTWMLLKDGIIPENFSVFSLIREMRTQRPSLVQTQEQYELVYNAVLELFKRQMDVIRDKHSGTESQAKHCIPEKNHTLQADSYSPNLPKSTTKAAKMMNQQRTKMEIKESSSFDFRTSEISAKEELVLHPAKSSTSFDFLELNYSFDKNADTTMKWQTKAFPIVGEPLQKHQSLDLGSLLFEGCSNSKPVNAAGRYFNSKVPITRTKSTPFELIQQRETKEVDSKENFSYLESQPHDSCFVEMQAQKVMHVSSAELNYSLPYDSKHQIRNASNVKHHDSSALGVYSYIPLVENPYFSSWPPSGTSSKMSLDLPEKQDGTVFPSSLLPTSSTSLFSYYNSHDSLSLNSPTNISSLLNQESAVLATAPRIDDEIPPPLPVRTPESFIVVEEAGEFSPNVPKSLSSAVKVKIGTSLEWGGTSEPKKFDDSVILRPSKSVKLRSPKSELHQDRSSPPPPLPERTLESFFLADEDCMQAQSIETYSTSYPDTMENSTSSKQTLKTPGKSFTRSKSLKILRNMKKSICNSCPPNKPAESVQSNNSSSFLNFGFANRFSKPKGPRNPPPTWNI
As to the kind of experiment: PubChem AID 2135.

Compound `CCOc1ccc2nc(NC(=O)CSc3cc(O)c4c(C)c(C)sc4n3)sc2c1` [2-[(2,3-dimethyl-4-oxidanylidene-5H-thieno[2,3-b]pyridin-6-yl)sulfanyl]-N-(6-ethoxy-1,3-benzothiazol-2-yl)ethanamide] gave a half-maximal inhibitory concentration (IC50) of more than 100 µM.
